Assays:
[1] = tested on: S. epidermidis; assay: Suspension test (germ count reduction by the formulation); assay type: cell-based; details: active alone; Ethylhexylglycerin 0,5% in Makroemulsion ohne Octenidine (Abbildung 4)
Protocol: Die Wirksamkeit wurde mittels der Freisetzung von Octenidine aus Makro- bzw. Mikroemulsionen untersucht, wie es beispielhaft in Abbildung 3 und 4 dargestellt ist. Ebenso sind Untersuchungen durchgeführt worden für W/O- Aerosol-Zubereitungen einmal mit und einmal ohne Octenidine, die zu gleichen Ergebnissen geführt haben. In den dargestellten Suspensionstests wurden zu 500µL einer Bakteriensuspension (S. epidermidis) 250 mg der zu testenden Formulierung gegeben (bei der Positivkontrolle nur 250 mg des Bakterienmediums). Diese Mischungen werden mit Medium auf 1000µL aufgefüllt. Die Suspension enthält dann ca. 1*10^6 KBE/mL (KBE: koloniebildende Einheiten). Die Ansätze werden bei 37°C unter Rotation für drei Stunden inkubiert. Nach 0, 20, 60 und 180 min werden Proben genommen, verdünnt und auf Agarplatten ausplattiert. Diese werden 24h bei 37°C zur Anzucht der verbleibenden Keime inkubiert. Gute und in vivo wirksame Deodorant-Formulierungen reduzieren die Keimzahl bereits nach 20 Minuten auf Nachweisgrenze von 100 KBE/mL. Formulierungen mit schlechterer Keimzahl-Reduktion zeigen in vivo keine ausreichende Deoleistung.

[2] = tested on: Bakterien; assay: Investigations of efficacy of amphiphilic actives from micro- and macroemulsions (method not specified)

Structure (SMILES) | Wirksamkeit im Suspensionstest (Keimzahl-Reduktion) [1] | Wirksamkeit ([2]; aus Makroemulsionen) | Wirksamkeit ([2]; in einer Mikroemulsion)
CCCCC(CC)COCC(O)CO (centres unmarked) [Ethylhexylglycerin, 1-(2-Ethylhexyl)glycerinether] | nicht wirksam |  | 
CC(C)(C)CC(C)(C)c1ccc(OCCOCC[N+](C)(C)Cc2ccccc2)cc1 [Benzethonium chloride] |  | zeigen eine Wirksamkeit | unwirksam
CCCCCCCCN=c1ccn(CCCCCCCCCCn2ccc(=NCCCCCCCC)cc2)cc1.Cl.Cl [Octenidine HCl, N, N'-(1,10-decanediyldi-1[4H]-pyridinyl-4-ylidene)-bis-(octanamine) dihydrochloride] | gewünschte Wirksamkeit | zeigen eine Wirksamkeit | 

Source: patent EP2613758B1, “MACROEMULSIONS WITH IMPROVED DEODORANT EFFICACY” (Beiersdorf AG, priority 2010, dated 2012)
